# Reference: paper PMC11571109, “Covalent Inhibitors of S100A4 Block the Formation of a Pro-Metastasis Non-Muscle Myosin 2A Complex” (Journal of Medicinal Chemistry, 2024)
# Values joined by “and” are separate entries in the source; they are usually repeats but may differ in a detail not shown here. Equal values may be shown once. Read-outs that look alike come from different tables or passages of the source.
# Tests used:
# S100A4 = S100A4 (Homo sapiens, UniProt P26447); test: Protein labeling detection by mass spectrometry, S100A4; details: 10 μM S100A4, 100 μM inhibitor, 1 h
# S100A11-AnII = molecular target: T1, S100A11-AnII (Homo sapiens, UniProt P31949); test: HTRF (TR-FRET) peptide displacement S100A11-AnII; type: binding; details: supplementary CSV
# T1 construct: made in house; host or cells: E. coli Rosetta (DE3); peptide from LifeTein
# T1 sequence (P31949 1-105): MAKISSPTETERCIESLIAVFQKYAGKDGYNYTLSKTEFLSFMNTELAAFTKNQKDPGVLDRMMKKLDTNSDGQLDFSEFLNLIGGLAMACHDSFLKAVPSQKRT
# Protocol: Table S4: Compound IDs and SMILES … S30 […]
# (§1) Peptide displacement assay development
# (§2) addition of an inhibitor.
# (§3) Assay was done in 384-well
# (§4) After 2 hours of incubation at
# (§5) concentration range to avoid the saturation of the signal.
# S100A4-NMII [1] = molecular target: T2, S100A4-NMII (Homo sapiens, UniProt P26447); test: HTRF (TR-FRET) peptide displacement S100A4-NMII (MPN peptide); type: binding; design: made in house; host or cells: E. coli Rosetta (DE3); peptide from LifeTein; details: supplementary CSV; read-out: S100A4 IC50 HTRF assay
# Protocol: as §1, §2, §3, §4, §5
# HeLa = test: Cell proliferation assay (CellTiter-Glo), HeLa; type: cell-based; details: Homo sapiens, 48 h, supplementary CSV
# Protocol: (§6) To further characterize the potency of the phenylproline derivatives on cancer cells, their effect on proliferation has been measured on HeLa and A549 cell lines, which are known to express S100A4.[44],[45] A cell proliferation assay was performed by cultivating cells for 48 h in complete media with various concentrations of inhibitors, up to 30 μM. At the end of the treatment, luminescence was measured after the addition of the CellTiter-Glo reagent (Figure 7A).
# (§7) The day before, cells were seeded in a white, cell-culture treated 384-well plates in complete high-glucose DMEM to reach a confluency of 25% on the day of the experiment. The next day, the medium was replaced by complete, high-glucose, phenol-red-free medium, and cells were incubated for 48 h in the presence of an inhibitor or DMSO as a control. Aliquots of the supernatant were harvested, diluted 100 times in 200 mM Tris-HCl, pH 7.3, 10% glycerol, and 1% BSA buffer, and used for cyctotoxicity measurement by using the LDH-Glo cytotoxicity assay kit (Promega). In parallel, the CellTiter-Glo (Promega) reagent was added to the cells to measure cell proliferation. Both experiments were done according to the manufacturer’s recommendations, and the luminescence was quantified using the FSX plate reader (Pherastar).
# [2] = Aqueous solubility in PBS (pH 7.4); type: physicochemical; details: aqueous buffer; PBS pH 7.4; read-out: aq. solubility
# Source text: (§8) Selected compounds were screened for aqueous solubility in PBS (pH 7.4), metabolic stability in mouse liver microsomes (MLM) as a measure of clearance, Log D, and permeability. ADME studies reported in this work were independently performed by WuXi AppTec (Shanghai, China). Raw data are provided upon request.
# A549 = test: Cell proliferation assay (CellTiter-Glo), A549; type: cell-based; details: Homo sapiens, 48 h, supplementary CSV
# Protocol: as §6, §7
# HeLa cells = test: Cell migration (wound healing) assay, HeLa; type: cell-based; details: 8 μM, 36 h
# Protocol: We next investigated whether phenylproline derivatives would inhibit S100A4 activity by affecting cell migration. HeLa and A549 cells were challenged for a cell migration assay in the presence of phenylproline derivatives. A monolayer of cells was scratched and treated with various concentrations of inhibitors for 36 h. Cell migration was monitored automatically using the Incucyte live-cell imager by imaging cells every 2 h.
# The day before the experiment, cells were seeded in a black, clear-bottom, collagen-coated 96-well plate in complete high-glucose DMEM to reach nearly full confluency the next day. On the day of the experiment, a wound in the cell layer was made, and the media were replaced with media containing phenylproline derivatives. Cells were incubated for 36 h in an Incucyte cell-imager (Sartorius, Germany), allowing for automated cell imaging every 2 h. The analysis was done by measuring the wound area using ImageJ and plugging the wound healing tool.
# S100A4-NMII [3] = molecular target: T2, S100A4-NMII; test: cell-based
# Source text: First, we performed IC50 measurements of protein–protein interaction in the presence of inhibitors using NanoBret technology. Briefly, S100A4-HaloTag and NMII-NanoLuc were expressed in 293HEK cells to allow signal detection from donor (NanoLuc) and acceptor (HaLoTag) proximity upon S100A4-NMII interaction.
# Assay development was done according to the NanoBRet-NanoGlo detection system manufacturer’s recommendations (Promega) by testing each combination of N- and C-termini of HaloTag and NanoLuc fusion constructs. 293HEK cells were seeded on 6-well plates in complete DMEM media and transfected 6 h later with S100A4-NanoLuc (1.8 μg) and NMII-HaloTag (0.2 μg) constructs using the JetPrime transfection reagent (Polyplus Transfection, Strasbourg, France). After an overnight incubation, cells were resuspended in phenol-red-free, 4% serum media in the presence of the HaloTag NanoBret 618 ligand or DMSO for control. […] NanoBret NanoGlo substrates were added to cells prior to reading the plate with the Pherastar FSX plate reader. The raw Nanobret ratio was calculated by dividing the acceptor emission value (618 nm) by the donor emission value (460 nm) for each sample. The mean NanoBret data were calculated by subtracting the background ratio (no acceptor control) from the sample ratio.
# [4] = Metabolic stability in mouse liver microsomes (MLM); type: in vitro ADME; details: mouse liver microsomes
# Source text: as §8
# Log D = type: physicochemical
# Source text: as §8
# [5] = Cytotoxicity assay (LDH-Glo), HeLa; type: cell-based; details: human, HeLa cells, supplementary CSV, read-out: HeLa Cell toxicity IC50
# Protocol: as §6, §7
# [6] = GSH reactivity assay (LCMS); type: physicochemical; details: 1 mM glutathione (GSH) in HEPES buffer, pH 7.5; read-out: GSH t1/2 (converted)
# Protocol: GSH is the most abundant low molecular weight thiol compound in the cell. It protects cells from oxidative damage and the toxicity of xenobiotic electrophiles and maintains redox homeostasis.[43] We speculated that a robust and specific reaction of inhibitors would not be drastically affected by competitive cysteines in the reaction.
# 50 μM of each compound was incubated at room temperature with 1 mM GSH in 50 mM HEPES, 20 mM NaCl, pH 7.5, and 1.3% DMSO. At each time point, an aliquot was taken and analyzed by LCMS. The percentage of the compound remaining was determined by comparing the area of the peaks of the compound and the GSH adduct. The natural logarithm of the results was fitted to a linear regression, and t1/2 was calculated as t1/2 = ln(2)/–slope.
# [7] = Cytotoxicity assay (LDH-Glo), A549; type: cell-based; details: human, A549 cells, supplementary CSV, read-out: A549 Cell toxicity IC50
# Protocol: as §6, §7
# [8] = tested on: P-glycoprotein (P-gp, MDR1); test: Cell permeability MDR1-MDCK II; type: in vitro ADME; details: dog
# Source text: as §8
# Chain of S100A4 (P26447 whole entry): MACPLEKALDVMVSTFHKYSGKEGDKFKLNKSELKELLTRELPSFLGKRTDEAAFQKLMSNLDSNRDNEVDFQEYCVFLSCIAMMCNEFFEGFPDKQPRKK
# T2 sequence (P26447 whole entry): as above
SMILES,S100A4 covalent modification pattern (in words) (S100A4),IC50 (S100A11-AnII) [µM],IC50 (S100A4-NMII [1]) [nM],other results
CC(C)c1c(-c2ccc(OCCNC(=O)/C=C/C(=O)c3ccccc3)cc2)[nH]c2c(C#N)cnn2c1=O [2a],multiple adduct additions,3.67,430,–
CC(C)c1c(-c2cnn(C3CCN(C(=O)/C=C/C(=O)c4ccccc4)CC3)c2)[nH]c2c(C#N)cnn2c1=O [2b],multiple adduct additions,1.35,480,–
CC(C)c1c(-c2cnn(CCNC(=O)/C=C/C(=O)c3ccccc3)c2)[nH]c2c(C#N)cnn2c1=O [2c],–,5.6,1790,–
O=C(CCl)Nc1ccc2c(c1)CN(CCc1cnn(-c3nccc4c(=O)[nH]cnc34)c1)CC2 [2d],–,> 30,9240,–
O=C(CCl)Nc1cccc(CN(CCc2cnn(-c3nccc4c(=O)[nH]cnc34)c2)C2CCCC2)c1 [3a],–,> 30,2400,–
C=CC(=O)Nc1cccc(CN(CCc2cnn(-c3nccc4c(=O)[nH]cnc34)c2)C2CCCC2)c1 [3b],–,> 30,9320,–

# Further lines, with some results ahead:
S100A4 covalent modification pattern (in words) (S100A4),IC50 (S100A11-AnII) [µM],IC50 (S100A4-NMII [1]) [nM],SMILES,other results
–,8.15,1730,C#CC(=O)N1CCN(CCc2cnn(-c3nccc4c(=O)[nH]cnc34)c2)CC1 [4a],–
single shifts,> 30,4220,O=C(Nc1cccc(Cl)c1)[C@H]1C[C@H](c2ccccc2)CN1C(=O)CCl [5a],"IC50 (HeLa): 3.1 µM; solubility [2]: 23.9 µg/mL and 63.4 µM; IC50 (A549): 25 µM; wound healing (cell migration) (HeLa cells): drastically reduced wound healing; IC50 (S100A4-NMII [3]): 20 µM; MLM, Cli [4]: 332 μL/min/mg protein; half-life ([4]; read-out: MLM, T1/2): 4 min; logD (Log D): 3.95; IC50 at 48 h [5]: 55.8 µM; half-life at 50 μM [6]: 564 min; IC50 at 48 h [7]: 27.1 µM; Papp ([8]; MDCK-MDR1, A to B, read-out: MDR1-MDCK II, AB Papp): 0.8 ×10⁻⁶ cm/s; Papp ([8]; MDCK-MDR1, B to A, read-out: MDR1-MDCK II, BA Papp): < 26.4 ×10⁻⁶ cm/s"
